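Interpolation was linear, between the two tested concentrations surrounding the appropriate level; five concentrations were tested over 48 hours in 96-well plates. GI50 = concentration required for 50% inhibition of growth. The concentration for full growth arrest is given as TGI.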 Where only a bound is given, the exact number is not on record here.

Test systems include CAKI-1 renal; CCRF-CEM leukemia; HL-60(TB) leukemia; MALME-3M melanoma; MOLT-4 leukemia; NCI/ADR-RES ovarian; OVCAR-3 ovarian; RXF 393 renal; SF-539 CNS; SR leukemia.
Common to all, as to experiment: inhibition of tumour cell growth, NCI panel, 48 h

Take `COC(=O)[C@@H](NC(=O)[C@@H](OC)[C@@H]1Cc2cc3cc(OC4CC(OC5CC(O)C(O)C(C)O5)C(O)C(C)O4)c(C)c(O)c3c(O)c2C(=O)[C@H]1OC1CC(OC2CC(OC3CC(C)(O)C(O)C(C)O3)C(O)C(C)O2)C(O)C(C)O1)C(C)C` (stereo not given in full): the GI50 with CAKI-1 renal is 107 nM; in the experiment on CCRF-CEM leukemia it was 122 nM; with HL-60(TB) leukemia it was 348 nM; with MALME-3M melanoma it was 76.3 nM; in the experiment with MOLT-4 leukemia, 136 nM; in the experiment on NCI/ADR-RES ovarian it was 23.7 µM. Further, the GI50 with OVCAR-3 ovarian was 165 nM; with RXF 393 renal, 82.2 nM; with SF-539 CNS, 127 nM; in the experiment with SR leukemia, 17.4 nM. Further, the TGI is 1.67 µM in the experiment with CAKI-1 renal; > 32.5 µM in the experiment with CCRF-CEM leukemia; > 32.5 µM with HL-60(TB) leukemia; 1.43 µM in the experiment with MALME-3M melanoma; 5.24 µM in the experiment on MOLT-4 leukemia; > 32.5 µM in the experiment with NCI/ADR-RES ovarian. Moreover, the TGI was > 32.5 µM in the experiment on OVCAR-3 ovarian, 427 nM in the experiment on RXF 393 renal, 0.847 µM in the experiment on SF-539 CNS and 5.08 µM in the experiment on SR leukemia.

On to `O=C(CN(C1CCCCC1)C1CCCCC1)Nc1ccc(S(=O)(=O)c2ccc(NC(=O)CN(C3CCCCC3)C3CCCCC3)cc2)cc1`, for which the GI50 was 1140 nM in the experiment with CAKI-1 renal; 222 nM in the experiment on CCRF-CEM leukemia; 1020 nM in the experiment on HL-60(TB) leukemia; 334 nM in the experiment with MALME-3M melanoma; 293 nM in the experiment with MOLT-4 leukemia; 0.89 µM in the experiment on NCI/ADR-RES ovarian. The GI50 is 279 nM with OVCAR-3 ovarian, 817 nM in the experiment on RXF 393 renal, 370 nM in the experiment with SF-539 CNS and 224 nM in the experiment with SR leukemia. For the same compound, the TGI was 2.35 µM with CAKI-1 renal; 1.28 µM in the experiment on CCRF-CEM leukemia; 3.23 µM in the experiment with HL-60(TB) leukemia; 1.3 µM in the experiment on MALME-3M melanoma; 2.7 µM with MOLT-4 leukemia; 6.31 µM with NCI/ADR-RES ovarian. Also, the TGI in the experiment on OVCAR-3 ovarian amounted to 1.02 µM; with RXF 393 renal, 2310 nM; in the experiment with SF-539 CNS, 1.46 µM; in the experiment with SR leukemia, 1.52 µM.

Take `O=c1[nH]c2cc(Cl)ccc2n1C1CCN(CCCC(c2ccc(F)cc2)c2ccc(F)cc2)CC1`: the GI50 is 488 nM in the experiment with CAKI-1 renal; 2310 nM in the experiment with CCRF-CEM leukemia; 2970 nM with HL-60(TB) leukemia; 1880 nM in the experiment on MALME-3M melanoma; 2430 nM in the experiment on MOLT-4 leukemia; 1.74 µM with NCI/ADR-RES ovarian. For the same compound, the GI50 is 1810 nM with OVCAR-3 ovarian, 480 nM with RXF 393 renal, 1640 nM in the experiment with SF-539 CNS and 2250 nM with SR leukemia. The TGI was determined as 1.97 µM with CAKI-1 renal; 6.98 µM in the experiment with CCRF-CEM leukemia; 14.7 µM with HL-60(TB) leukemia; 4.21 µM in the experiment with MALME-3M melanoma; 7.15 µM in the experiment with MOLT-4 leukemia; 3.61 µM with NCI/ADR-RES ovarian. Besides, the TGI amounted to 3.27 µM with OVCAR-3 ovarian, 2020 nM in the experiment with RXF 393 renal, 3 µM in the experiment with SF-539 CNS and 8.36 µM in the experiment on SR leukemia.

Take `Cc1cc(NC(=O)c2ccc(C)c(Nc3nccc(-c4cccnc4)n3)c2)cc(-n2cnc(C)c2)c1`: the GI50 is 2180 nM in the experiment on CAKI-1 renal; 134 nM in the experiment on CCRF-CEM leukemia; 14500 nM in the experiment with HL-60(TB) leukemia; 2390 nM in the experiment with MALME-3M melanoma; 15600 nM in the experiment on MOLT-4 leukemia; 7.18 µM in the experiment on NCI/ADR-RES ovarian. The GI50 in the experiment with OVCAR-3 ovarian is 1870 nM; in the experiment with RXF 393 renal it was 1560 nM; in the experiment on SF-539 CNS, 2090 nM; with SR leukemia it was 2460 nM. The TGI in the experiment with CAKI-1 renal was 7.15 µM; with CCRF-CEM leukemia it was > 50 µM; with HL-60(TB) leukemia it was > 50 µM; in the experiment on MALME-3M melanoma, 10.6 µM; in the experiment with MOLT-4 leukemia it was > 50 µM; in the experiment on NCI/ADR-RES ovarian, 23 µM. Besides, the TGI came to 4.83 µM in the experiment on OVCAR-3 ovarian, 4880 nM in the experiment on RXF 393 renal, 9.27 µM in the experiment on SF-539 CNS and 11.8 µM in the experiment on SR leukemia.

Regarding `CN1CCc2c(Sc3ccc(C(=O)NO)cc3)c3ccccc3n2C1`, the GI50 in the experiment on CAKI-1 renal is 3950 nM; in the experiment with CCRF-CEM leukemia, 1870 nM; in the experiment with HL-60(TB) leukemia, 2950 nM; in the experiment on MALME-3M melanoma it was 1120 nM; in the experiment with MOLT-4 leukemia, 2530 nM; with NCI/ADR-RES ovarian, 6.81 µM. Besides, the GI50 in the experiment with OVCAR-3 ovarian was 2160 nM; in the experiment on RXF 393 renal it was 2370 nM; in the experiment with SF-539 CNS, 1420 nM; with SR leukemia it was 2690 nM. Further, the TGI is 14.5 µM in the experiment with CAKI-1 renal; > 24.9 µM with CCRF-CEM leukemia; 8.09 µM with HL-60(TB) leukemia; 4.33 µM in the experiment with MALME-3M melanoma; 7.01 µM with MOLT-4 leukemia; 51.7 µM with NCI/ADR-RES ovarian. In addition, the TGI in the experiment on OVCAR-3 ovarian was 6.74 µM; with RXF 393 renal it was 9510 nM; in the experiment on SF-539 CNS it was 3.11 µM; in the experiment on SR leukemia, 9.92 µM.

`Cc1sc2nc(NCCc3c[nH]c4ccc(Cl)cc34)[nH]c(=O)c2c1C`: the GI50 was 1500 nM in the experiment with CAKI-1 renal; 2630 nM in the experiment on CCRF-CEM leukemia; 2340 nM in the experiment with HL-60(TB) leukemia; 2380 nM in the experiment on MALME-3M melanoma; 2220 nM in the experiment with MOLT-4 leukemia; 3.07 µM with NCI/ADR-RES ovarian. For the same compound, the GI50 in the experiment on OVCAR-3 ovarian is 3260 nM; with RXF 393 renal, 1790 nM; with SF-539 CNS it was 3370 nM; in the experiment with SR leukemia it was 1810 nM. The TGI in the experiment on CAKI-1 renal is 3.7 µM; with CCRF-CEM leukemia, 14.2 µM; with HL-60(TB) leukemia it was 5.91 µM; in the experiment on MALME-3M melanoma it was 7.45 µM; in the experiment with MOLT-4 leukemia, 7.27 µM; in the experiment with NCI/ADR-RES ovarian, 15.6 µM. Also, the TGI stood at 12.7 µM in the experiment on OVCAR-3 ovarian, 3410 nM in the experiment on RXF 393 renal, 13.4 µM with SF-539 CNS and 8.52 µM in the experiment on SR leukemia.

For the origin of these results see PubChem BioAssay (NCI).
